Experimental findings from ChEMBL document CHEMBL5260811, “Drug development against tuberculosis: Impact of alkaloids” (Eur J Med Chem, 2017) are described below.

In experiment [1] the test system is Mycobacterium tuberculosis. In words: Antimycobacterial activity against Mycobacterium tuberculosis Rv2163c harbouring ftsI gene. The class given is functional.
In experiment [2] the test system is Mycobacterium tuberculosis. As to the kind of experiment: Antimycobacterial activity against Mycobacterium tuberculosis Rv2163c harbouring pbpB gene. The class given is functional.
Experiment [3] deals with Mycobacterium tuberculosis. As to the kind of experiment: microbe, parasite or virus in culture.
Experiment [4] deals with Mycobacterium tuberculosis. In words: Antimycobacterial activity against Mycobacterium tuberculosis harbouring katG gene. In kind it is functional.
Experiment [5] concerns Mycobacterium tuberculosis. In words: microbe, parasite or virus in culture. This is another data set of the same source.
Experiment [6] relates to Mycobacterium tuberculosis. As to the kind of experiment: Antimycobacterial activity against Mycobacterium tuberculosis harbouring rrs gene. In kind it is functional.
Experiment [7] has as its system Mycobacterium tuberculosis. As to the kind of experiment: Antimycobacterial activity against Mycobacterium tuberculosis Rv0006 harbouring gyrA gene. In kind it is functional.
Experiment [8] deals with Mycobacterium tuberculosis. As to the kind of experiment: Antimycobacterial activity against Mycobacterium tuberculosis Rv0005 harbouring gyrB gene. The class given is functional.
In experiment [9] the test system is Mycobacterium tuberculosis. As to the kind of experiment: Antimycobacterial activity against Mycobacterium tuberculosis Rv0701 harbouring rplC gene. The class given is functional.
Experiment [10] deals with Mycobacterium tuberculosis. In words: Antimycobacterial activity against Mycobacterium tuberculosis Rv3790 harbouring DprE1 gene. In kind it is functional.
In experiment [11] the test system is Mycobacterium tuberculosis. As to the kind of experiment: Antimycobacterial activity against Mycobacterium tuberculosis Rv2068c harbouring blaC gene. The class given is functional.
Experiment [12] relates to Mycobacterium tuberculosis. As to the kind of experiment: Antimycobacterial activity against Mycobacterium tuberculosis Rv1484 harbouring inhA gene. The class given is functional.
Experiment [13] relates to Mycobacterium tuberculosis. In words: Antimycobacterial activity against Mycobacterium tuberculosis harbouring pncA gene. The class given is functional.
Experiment [14] deals with Mycobacterium tuberculosis. In words: Antimycobacterial activity against Mycobacterium tuberculosis Rv0667 harbouring rpoB gene. The class given is functional.
Experiment [15] has as its system Mycobacterium tuberculosis. In words: microbe, parasite or virus in culture. This is another data set of the same source.
Experiment [16] has as its system Mycobacterium tuberculosis. As to the kind of experiment: Antimycobacterial activity against Mycobacterium tuberculosis harbouring rpsL gene. The class given is functional.
For experiment [17], the system named is Mycobacterium tuberculosis. As to the kind of experiment: Antimycobacterial activity against Mycobacterium tuberculosis Rv2196 harbouring qcrB gene. In kind it is functional.
Experiment [18] relates to Mycobacterium tuberculosis. In words: Antimycobacterial activity against multi-drug resistant Mycobacterium tuberculosis. The class given is functional.
Experiment [19] deals with Mycobacterium tuberculosis. In words: Antimycobacterial activity against Mycobacterium tuberculosis harbouring vph gene. In kind it is functional.

Structures are written as SMILES. In brackets after ≈: the same amount, converted by molar mass. Starred links: 1 amine or outer side, 2 acyl side, 3 side chain; linkers in the order of their positions; H or OH if unused. Positions of bridges follow the written chain, without caps; N, C: chain ends. Non-standard residues stand in square brackets, D forms with d. Residues, ends and D or L forms follow the SMILES beside them. *: point of attachment. X1 = NC1=N[C@@H]([C@H](N[*:1])C(=O)[*:2])C[C@H](O)N1; ΔAla(Z-3-ureido) = NC(=O)N/C=C(\N)C(=O)O; β3hOrn = NCCC[C@H](N)CC(=O)*; Dap = NC[C@H](N)C(=O)O

For `C[C@@H](O)[C@H]1C(=O)N2C(C(=O)O)=C(SCCNC=N)C[C@H]12` [IMIPENEM ANHYDROUS], the MIC in [1] and in experiment [2] was 160 ng/mL (≈ 534 nM) each time.

Turning to `NNC(=O)c1ccncc1` [ISONIAZID], the MIC in experiment [3], in experiment [4] and in experiment [5] was 10 ng/mL (≈ 72.9 nM) throughout.

As for `NC[C@H]1O[C@H](O[C@H]2[C@H](O)[C@@H](O[C@H]3O[C@H](CO)[C@@H](O)[C@H](N)[C@H]3O)[C@H](N)C[C@@H]2N)[C@H](O)[C@@H](O)[C@@H]1O` [KANAMYCIN], the MIC in experiment [6] is 1000 ng/mL (≈ 2060 nM).

On to `C[C@H]1COc2c(N3CCN(C)CC3)c(F)cc3c(=O)c(C(=O)O)cn1c23.C[C@H]1COc2c(N3CCN(C)CC3)c(F)cc3c(=O)c(C(=O)O)cn1c23.O` [LEVOFLOXACIN], for which the MIC in [7] and in experiment [8] was 500 ng/mL throughout.

On to `CC(=O)NC[C@H]1CN(c2ccc(N3CCOCC3)c(F)c2)C(=O)O1` [LINEZOLID], for which, in [9], the MIC stood at 500 ng/mL (≈ 1480 nM).

As to `O=c1nc(N2CCN(CC3CCCCC3)CC2)sc2c([N+](=O)[O-])cc(C(F)(F)F)cc12` [MACOZINONE], the MIC in experiment [10] was found to be 0.3 ng/mL (≈ 0.657 nM).

For `C[C@@H](O)[C@H]1C(=O)N2C(C(=O)O)=C(S[C@@H]3CN[C@H](C(=O)N(C)C)C3)[C@H](C)[C@H]12` [MEROPENEM], the MIC in [2] and in experiment [11] was 500 ng/mL (≈ 1300 nM) in each case.

Regarding `CC1COc2c(N3CCN(C)CC3)c(F)cc3c(=O)c(C(=O)O)cn1c23` (stereo unspecified) [OFLOXACIN], the MIC in [7] and in experiment [8] was 125 ng/mL (≈ 346 nM) throughout.

In [9], `O=C([C@@H](O)CO)N1CC=C(c2c(F)cc(N3C[C@H](COc4ccon4)OC3=O)cc2F)CC1` [POSIZOLID] gave an MIC of 250 ng/mL (≈ 537 nM).

In [12], `CCCc1cc(C(N)=S)ccn1` [PROTIONAMIDE] showed an MIC of 300 ng/mL (≈ 1660 nM).

`NC(=O)c1cnccn1` [PYRAZINAMIDE] showed an MIC in experiment [13] of 20000 ng/mL (≈ 162000 nM).

Regarding `CO[C@H]1/C=C/O[C@@]2(C)Oc3c(C)c(O)c4c(c3C2=O)C2=NC3(CCN(CC(C)C)CC3)NC2=C(NC(=O)/C(C)=C\C=C\[C@H](C)[C@H](O)[C@@H](C)[C@@H](O)[C@@H](C)[C@H](OC(C)=O)[C@@H]1C)C4=O` [RIFABUTIN], in [14], the MIC amounted to 15 ng/mL (≈ 17.7 nM).

Regarding `CO[C@H]1/C=C/O[C@@]2(C)Oc3c(C)c(O)c4c(O)c(c(/C=N/N5CCN(C)CC5)c(O)c4c3C2=O)NC(=O)/C(C)=C\C=C\[C@H](C)[C@H](O)[C@@H](C)[C@@H](O)[C@@H](C)[C@H](OC(C)=O)[C@@H]1C` [RIFAMPIN], the MIC in experiment [15] is 50 ng/mL (≈ 60.8 nM).

In the case of `CO[C@H]1/C=C/O[C@@]2(C)Oc3c(C)c(O)c4c(O)c(c(/C=N/N5CCN(C6CCCC6)CC5)c(O)c4c3C2=O)NC(=O)/C(C)=C\C=C\[C@H](C)[C@H](O)[C@@H](C)[C@@H](O)[C@@H](C)[C@H](OC(C)=O)[C@@H]1C` [RIFAPENTINE], the MIC in experiment [14] amounted to 30 ng/mL (≈ 34.2 nM).

Turning to `CN[C@@H]1[C@H](O[C@H]2[C@H](O[C@H]3[C@H](O)[C@@H](O)[C@H](N=C(N)N)[C@@H](O)[C@@H]3N=C(N)N)O[C@@H](C)[C@]2(O)C=O)O[C@@H](CO)[C@H](O)[C@H]1O` [STREPTOMYCIN], the MIC in [16] and in [6] was 2000 ng/mL (≈ 3440 nM) each time.

Regarding `CC(=O)NC[C@H]1CN(c2ccc(N3CCSCC3)c(F)c2)C(=O)O1` [SUTEZOLID], the MIC in experiment [9] was determined as 500 ng/mL (≈ 1410 nM).

Compound `CCc1nc2ccc(Cl)cn2c1C(=O)NCc1ccc(N2CCC(c3ccc(OC(F)(F)F)cc3)CC2)cc1` [TELACEBEC] yielded an MIC in experiment [17] of 2.7 nM (≈ 1.5 ng/mL).

In turn, `O=C1c2ccccc2-n2c1nc1ccccc1c2=O` [TRYPTANTHRIN] registered an MIC in experiment [18] of 0.016 ng/mL (≈ 0.0645 nM).

Compound `NCCC[C@H](N)CC(=O)N[C@H]1CNC(=O)[C@H]([C@H]2C[C@H](O)NC(N)=N2)NC(=O)/C(=C/NC(N)=O)NC(=O)[C@H](CO)NC(=O)[C@H](CO)NC1=O` [VIOMYCIN] (β3hOrn-[Dap]SS[ΔAla(Z-3-ureido)][X1]; lactam 1-C) displayed an MIC in experiment [19] of 4000 ng/mL (≈ 5830 nM).
